Where a SMILES comes first, the peptide text is derived from it. Bridges are numbered along the chain shown (N, C = ends).
Experiment: mechanical hyperalgesia / nociceptive behavior in mice (von Frey, up-down)
Type: in vivo, mouse (male C57BL/6)
Details: 40 nmol/kg
Experimental: In the present study, male C57BL/6 mice weighing 20-25 g were utilized. This study was performed following the Guide for the Care and Use of Laboratory Animals released by the United States National Institutes of Health (US NIH). Our study protocol was approved by the Animal Experiments Ethics Committee at Central Southern University (No. 2018-2-6). Each operation was performed under isoflurane-induced anesthesia to reduce pain and minimize animal suffering. Lumbar puncture was also conducted for intrathecal injection, as described previously. Next, the effect of JZTX-X on nociception was evaluated by assessing the behaviors during the mechanical hyperalgesia process. The JZTX-X-induced mechanical hyperalgesia was investigated by two experiments via various administration routes, including intrathecal and intraplantar injections. Then, animals were challenged via intrathecal (10 µL) or intraplantar (20 µL) injection of JZTX-X (40 nmol/kg). The control group was given a physiological solution, which contained 0.9% NaCl, […].
Mechanical hyperalgesia was measured according to the previously depicted “up-down” paradigm. Individual mice were allowed to acclimate for at least 30 min on the mesh floor in suspended chambers. After acclimatization, various calibrated von Frey filaments (Stoelting, Wood Dale, IL) were applied to all animals, which were vertical to the hind paw plantar surfaces becausethere was enough force for bending those filaments for 6 s. Later, the animal responses were recorded. The positive response was defined as paw flinching or brisk withdrawal. When there was no response, force filament at a greater level was applied. Accordingly, force ligament at a lower level was applied […]. The “up-down” approach was adopted to calculate the 50% likelihood where one withdrawal response was produced by the simple stimulus.

## CC(C)C[C@@H]1NC(=O)[C@H](CCCCN)NC(=O)[C@H](Cc2ccc(O)cc2)NC(=O)[C@@H]2CSSC[C@@H]3NC(=O)[C@H](Cc4ccc(O)cc4)NC(=O)[C@H](Cc4ccccc4)NC(=O)CNC(=O)[C@H](C)NC(=O)[C@H](CSSC[C@H](NC(=O)[C@@H](N)CC(C)C)C(=O)N[C@@H](CO)C(=O)N[C@@H](CCCNC(=N)N)C(=O)N[C@@H](CCC(=O)O)C(=O)NCC(=O)N[C@@H](CCC(=O)O)C(=O)N[C@@H](Cc4ccccc4)C(=O)N2)NC(=O)[C@H](CSSC[C@@H](C(=O)N[C@@H](Cc2ccc(O)cc2)C(=O)N[C@@H](CCCNC(=N)N)C(=O)N[C@@H](CC(N)=O)C(=O)O)NC(=O)[C@H](Cc2c[nH]cn2)NC(=O)[C@H](CC(C)C)NC(=O)[C@H](C(C)C)NC(=O)[C@H](Cc2ccccc2)NC(=O)[C@H](C)NC(=O)[C@H](CCCCN)NC3=O)NC(=O)[C@H](CCCCN)NC(=O)[C@H](CCCNC(=N)N)NC1=O [JZTX-X, Jingzhaotoxin-X] (H-LCSREGEFCYKLRKCCAGFYCKAFVLHCYRN-OH; disulfide 2-16, 9-21, 15-28; N-terminus assumed)
intraplantar, n = 8
  baseline threshold of tactile withdrawal: markedly decreased
Intrathecal or intraplantar, after cessation of treatment
  duration of reduced paw withdrawal threshold: at least 120 min
Intrathecal or intraplantar, n = 8
  spontaneous nociceptive behaviors: did not induce spontaneous nociceptive behaviors
intrathecal, n = 8
  baseline threshold of tactile withdrawal: markedly decreased
